The source of these data is patent US9670194B2 (Calitor Sciences, LLC, priority 2013, dated 2017).

A short description of data set [1]: Compound stability in human liver microsomes. The settings on record: for half-life at 5 μM: human liver microsomes 0.5 mg protein/mL, compound 5 μM, NADPH 1.0 mM, 37° C.; for CLint scaled at 5 μM: human liver microsomes, in vivo CLint extrapolated. Format: in vitro ADME.
Data set [2] is described as follows: Compound stability in rat liver microsomes. The conditions noted are these: pH 7.4; for half-life at 5 μM: rat liver microsomes 0.5 mg protein/mL, compound 5 μM, NADPH 1.0 mM, 37° C.; for CLint scaled at 5 μM: rat liver microsomes, in vivo CLint extrapolated. Format: in vitro ADME.
Data set [3] is described as follows: Pharmacokinetics after intravenous and oral administration in rats. It is filed as in vivo, rat. The conditions noted are these: for bioavailability / AUC(0-t) / half-life / Vd: rat, plasma; for bioavailability: oral dose generally 5 or 10 mg/kg; for Vd: read-out: Vss.
In another data set the target is PI3K (p110δ/p85α) (h) (Homo sapiens (Human), UniProt O00329). As to the kind of experiment: PI3K (p110δ/p85α) (h) non-radioactive HTRF kinase assay. It is filed as biochemical. (Time-resolved FRET reads energy transfer from a long-lived donor to a nearby acceptor.)
Chain of PI3K (p110δ/p85α) (h) (O00329 whole entry): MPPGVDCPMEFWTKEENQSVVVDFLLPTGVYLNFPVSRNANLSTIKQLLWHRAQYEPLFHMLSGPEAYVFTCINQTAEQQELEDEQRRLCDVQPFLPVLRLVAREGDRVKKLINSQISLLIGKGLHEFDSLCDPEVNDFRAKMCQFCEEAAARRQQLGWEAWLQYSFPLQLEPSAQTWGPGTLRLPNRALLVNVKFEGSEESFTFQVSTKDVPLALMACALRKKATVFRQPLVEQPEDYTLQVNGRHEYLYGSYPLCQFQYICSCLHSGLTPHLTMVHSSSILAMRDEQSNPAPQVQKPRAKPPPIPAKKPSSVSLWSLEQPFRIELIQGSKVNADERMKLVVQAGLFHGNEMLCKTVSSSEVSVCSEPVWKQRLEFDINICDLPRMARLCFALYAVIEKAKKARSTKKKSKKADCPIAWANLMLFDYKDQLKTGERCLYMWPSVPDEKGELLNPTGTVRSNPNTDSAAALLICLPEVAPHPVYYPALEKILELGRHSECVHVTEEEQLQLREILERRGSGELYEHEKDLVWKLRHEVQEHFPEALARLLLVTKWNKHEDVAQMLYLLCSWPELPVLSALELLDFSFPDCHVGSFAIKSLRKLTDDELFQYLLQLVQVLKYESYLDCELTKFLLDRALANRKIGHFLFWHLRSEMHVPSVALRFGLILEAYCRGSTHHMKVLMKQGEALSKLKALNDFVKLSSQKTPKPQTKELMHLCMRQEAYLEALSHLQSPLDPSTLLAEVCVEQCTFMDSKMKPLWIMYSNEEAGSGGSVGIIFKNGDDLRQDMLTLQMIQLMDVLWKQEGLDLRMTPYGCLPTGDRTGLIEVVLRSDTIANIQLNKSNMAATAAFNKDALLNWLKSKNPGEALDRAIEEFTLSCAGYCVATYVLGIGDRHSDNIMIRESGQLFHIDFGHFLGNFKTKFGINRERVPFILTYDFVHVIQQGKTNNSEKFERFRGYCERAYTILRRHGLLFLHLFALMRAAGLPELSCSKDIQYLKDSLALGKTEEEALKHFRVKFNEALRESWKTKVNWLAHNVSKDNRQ
Chain of PI3K (p110δ/p85α) (h) (P27986 whole entry partner): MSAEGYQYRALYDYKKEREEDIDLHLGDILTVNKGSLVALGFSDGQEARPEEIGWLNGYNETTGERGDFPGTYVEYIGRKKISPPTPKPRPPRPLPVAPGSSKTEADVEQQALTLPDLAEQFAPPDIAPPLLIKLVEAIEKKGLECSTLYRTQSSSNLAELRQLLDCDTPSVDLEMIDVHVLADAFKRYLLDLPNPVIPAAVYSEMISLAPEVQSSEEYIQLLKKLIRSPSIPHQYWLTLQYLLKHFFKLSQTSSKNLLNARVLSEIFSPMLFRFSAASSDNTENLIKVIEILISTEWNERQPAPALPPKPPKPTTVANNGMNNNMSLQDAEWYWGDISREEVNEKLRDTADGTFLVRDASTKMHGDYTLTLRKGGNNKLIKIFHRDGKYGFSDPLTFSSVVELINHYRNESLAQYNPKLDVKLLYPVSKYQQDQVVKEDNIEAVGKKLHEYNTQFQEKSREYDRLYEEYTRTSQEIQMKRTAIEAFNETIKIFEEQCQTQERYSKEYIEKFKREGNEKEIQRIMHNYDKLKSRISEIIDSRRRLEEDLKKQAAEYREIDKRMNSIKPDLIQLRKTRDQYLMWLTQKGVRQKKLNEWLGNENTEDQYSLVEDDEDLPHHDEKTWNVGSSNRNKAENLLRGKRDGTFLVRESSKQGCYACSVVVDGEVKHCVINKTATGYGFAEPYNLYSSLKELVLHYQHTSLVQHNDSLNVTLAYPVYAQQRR

Structures are written as SMILES. Read-outs that look alike come from different tables or passages of the source.

What is called half-life is the time in which the quantity being followed falls by half. What is called CLint scaled is the capacity of the preparation to metabolise the compound, expressed as a volume cleared per time. A word on the AUC(0-t): it is the area under the concentration-time curve up to a stated or last time point. Low values mean low exposure, high ones high exposure. In general, IC50 refers to the midpoint of a concentration-inhibition curve. Regarding `CC[C@H](Nc1ncnc(N)c1-c1ncn(C)n1)c1nc2cccc(F)c2c(=O)n1C1CC1` [Ex. 26, (S)-2-(1-((6-amino-5-(1-methyl-1H-1,2,4-triazol-3-yl)pyrimidin-4-yl)amino)propyl)-3-cyclopropyl-5-fluoroquinazolin-4(3H)-one], in data set [1], the half-life at 5 μM amounted to 74.5 min and the CLint scaled at 5 μM was 2 L/h/kg. In data set [2], the half-life at 5 μM amounted to 66.3 min and the CLint scaled at 5 μM was 2.25 L/h/kg. In addition, in data set [3] (iv dosing, dose 1 mg/kg), the “clearance (CL)” value worked out at 2.22 L/h/kg, the AUC(0-t) stood at 0.443 µg·h/mL, the half-life is 128 min and the Vd was determined as 2.5 L/kg. For the same compound, the bioavailability in data set [3] (iv dose 1 mg/kg) is 45.8%. For the same compound, at PI3K (p110δ/p85α) (h), the IC50 was found to be 2.29 µM.

Turning to `CCc1noc(-c2c(N)ncnc2N[C@@H](CC)c2nc3cccc(Cl)c3c(=O)n2C2CC2)n1` [Ex. 56, (S)-2-(1-((6-amino-5-(3-ethyl-1,2,4-oxadiazol-5-yl)pyrimidin-4-yl)amino)-propyl)-5-chloro-3-cyclopropylquinazolin-4(3H)-one], in data set [1], the half-life at 5 μM is 20 min and the intrinsic metabolic clearance (CLint scaled) at 5 μM was 5.22 L/h/kg. Further, in data set [2], the half-life at 5 μM stood at 20.4 min and the CLint scaled at 5 μM is 7.32 L/h/kg. Further, in data set [3] (iv dosing, dose 1 mg/kg), the “clearance (CL)” value turned out to be 4.48 L/h/kg, the AUC(0-t) turned out to be 0.217 µg·h/mL, the half-life is 104 min and the Vd worked out at 8.12 L/kg. Further, the bioavailability in data set [3] (iv dose 1 mg/kg) worked out at 60.9%. In addition, at PI3K (p110δ/p85α) (h), the IC50 was 0.009 µM.

For the compound `CC[C@H](Nc1ncnc(N)c1-c1nnc(C)o1)c1nc2cccc(C)c2c(=O)n1-c1ccccc1` [Ex. 38, (S)-2-(1-((6-amino-5-(5-methyl-1,3,4-oxadiazol-2-yl)pyrimidin-4-yl)amino)-propyl)-5-methyl-3-phenylquinazolin-4(3H)-one], in data set [1], the half-life at 5 μM amounted to 16 min and the CLint scaled at 5 μM is 6.52 L/h/kg. For the same compound, in data set [2], the half-life at 5 μM was found to be 8.57 min and the CLint scaled at 5 μM was 17.4 L/h/kg. For the same compound, in data set [3] (iv dosing, dose 1 mg/kg), the “clearance (CL)” value was found to be 4.28 L/h/kg, the AUC(0-t) was 0.236 µg·h/mL, the half-life was 39.3 min and the Vd was 3.05 L/kg. For the same compound, the bioavailability in data set [3] (iv dose 1 mg/kg) amounted to 36.6%. For the same compound, at PI3K (p110δ/p85α) (h), the IC50 is 0.012 µM.

On to `CC[C@H](Nc1ncnc(N)c1-c1ccon1)c1nc2cccc(Cl)c2c(=O)n1C1CC1` [Ex. 14, (S)-2-(1-((6-amino-5-(isoxazol-3-yl)pyrimidin-4-yl)amino)propyl)-5-chloro-3-cyclopropylquinazolin-4(3H)-one], for which, in data set [3] (iv dosing, dose 1 mg/kg), the “clearance (CL)” value is reported as 2.80 L/h/kg, the AUC(0-t) was 0.362 µg·h/mL, the half-life was 45.6 min and the Vd amounted to 2.18 L/kg. Moreover, in data set [3] (iv dose 1 mg/kg), the bioavailability came out at 23.1%. The IC50 at PI3K (p110δ/p85α) (h) was 0.02 µM.

As to `CC[C@H](Nc1ncnc(N)c1-c1noc(C)n1)c1nc2cccc(Cl)c2c(=O)n1-c1ccccc1` [Ex. 13, (S)-2-(1-((6-amino-5-(5-methyl-1,2,4-oxadiazol-3-yl)pyrimidin-4-yl)amino)-propyl)-5-chloro-3-phenylquinazolin-4(3H)-one], in data set [1], the half-life at 5 μM amounted to 44.7 min and the CLint scaled at 5 μM is 2.33 L/h/kg. For the same compound, in data set [2], the half-life at 5 μM stood at 6.55 min and the CLint scaled at 5 μM is 22.8 L/h/kg. Also, in data set [3] (iv dosing, dose 1 mg/kg), the “clearance (CL)” value is on record as 4.35 L/h/kg, the AUC(0-t) was 0.232 µg·h/mL, the half-life is 68.4 min and the Vd came to 6.92 L/kg. Further, in data set [3] (iv dose 1 mg/kg), the bioavailability was found to be 11.4%.

In the case of `CC[C@H](Nc1ncnc(N)c1-c1ncn(C)n1)c1nc2cccc(C)c2c(=O)n1C1CC1` [Ex. 18, (S)-2-(1-((6-amino-5-(1-methyl-1H-1,2,4-triazol-3-yl)pyrimidin-4-yl)amino)propyl)-3-cyclopropyl-5-methylquinazolin-4(3H)-one], in data set [1], the half-life at 5 μM worked out at 16.5 min and the CLint scaled at 5 μM was 6.33 L/h/kg. Moreover, in data set [2], the half-life at 5 μM worked out at 9.24 min and the CLint scaled at 5 μM is 16.1 L/h/kg. In data set [3] (iv dosing, dose 1 mg/kg), the “clearance (CL)” value turned out to be 3.25 L/h/kg, the AUC(0-t) is 0.307 µg·h/mL, the half-life was 53.4 min and the Vd turned out to be 2.94 L/kg. Further, in data set [3] (iv dose 1 mg/kg), the bioavailability worked out at 60.6%.

As for `CC[C@H](Nc1ncnc(N)c1-c1ncnn1C)c1nc2cccc(Cl)c2c(=O)n1C1CC1` [Ex. 9, 2-((1S)-1-((6-amino-5-(1-methyl-1H-1,2,4-triazol-5-yl)pyrimidin-4-yl)amino)-propyl)-5-chloro-3-cyclopropylquinazolin-4(3H)-one], in data set [1], the half-life at 5 μM is 160 min and the CLint scaled at 5 μM is 0.652 L/h/kg. Also, in data set [2], the half-life at 5 μM stood at 56.8 min and the CLint scaled at 5 μM is 2.63 L/h/kg. Besides, in data set [3] (iv dosing, dose 1 mg/kg), the “clearance (CL)” value worked out at 1.64 L/h/kg, the AUC(0-t) stood at 0.608 µg·h/mL, the half-life is 78 min and the Vd was 2.12 L/kg. For the same compound, in data set [3] (iv dose 1 mg/kg), the bioavailability came out at 158%.

Consider `C[C@H](Nc1ncnc(N)c1-c1nnn(C)n1)c1nc2cccc(Cl)c2c(=O)n1C1CC1` [Ex. 42, (S)-2-(1-((6-amino-5-(2-methyl-2H-tetrazol-5-yl)pyrimidin-4-yl)amino)ethyl)-5-chloro-3-cyclopropylquinazolin-4(3H)-one], for which, in data set [1], the half-life at 5 μM turned out to be 42.4 min and the CLint scaled at 5 μM is 2.46 L/h/kg. In addition, in data set [2], the half-life at 5 μM is 25.3 min and the CLint scaled at 5 μM is 5.89 L/h/kg. Besides, in data set [3] (iv dosing, dose 1 mg/kg), the “clearance (CL)” value was 4.92 L/h/kg, the AUC(0-t) was determined as 0.203 µg·h/mL, the half-life is 54.6 min and the Vd amounted to 5.15 L/kg. Also, the bioavailability in data set [3] (iv dose 1 mg/kg) worked out at 33%.

The term CL/F denotes the apparent clearance, not corrected for the fraction that reaches the circulation. On to `CC[C@H](Nc1ncnc(N)c1-c1noc(C)n1)c1nc2cccc(C)c2c(=O)n1C1CC1`, for which, in data set [1], the half-life at 5 μM amounted to 19.6 min and the CLint scaled at 5 μM is 7.58 L/h/kg. Further, in data set [2], the half-life at 5 μM amounted to 20 min and the CLint scaled at 5 μM is 7.46 L/h/kg. In data set [3] (iv dosing, dose 1 mg/kg), the CL/F is on record as 2.42 L/h/kg, the AUC(0-t) came out at 0.393 µg·h/mL, the half-life was 158 min and the Vd stood at 6.07 L/kg. For the same compound, the bioavailability in data set [3] (iv dose 1 mg/kg) is 40.5%.

For the compound `CC[C@H](Nc1ncnc(N)c1-c1nnc(C)o1)c1nc2cccc(Cl)c2c(=O)n1-c1ccccc1C` [Ex. 35, (S)-2-(1-((6-amino-5-(5-methyl-1,3,4-oxadiazol-2-yl)pyrimidin-4-yl)-amino)propyl)-5-chloro-3-(o-tolyl)quinazolin-4(3H)-one], in data set [1], the half-life at 5 μM stood at 37.9 min and the CLint scaled at 5 μM was 2.75 L/h/kg. Further, in data set [2], the half-life at 5 μM was determined as 8.87 min and the CLint scaled at 5 μM was 16.8 L/h/kg. In data set [3] (iv dosing, dose 0.5 mg/kg), the “clearance (CL)” value was 3.18 L/h/kg, the AUC(0-t) stood at 0.157 µg·h/mL, the half-life was 67.8 min and the Vd was 3.46 L/kg. Also, the bioavailability in data set [3] (iv dose 0.5 mg/kg) turned out to be 41.8%.

Take `CC[C@H](Nc1ncnc(N)c1-c1ncn(C)n1)c1nc2cccc(C)c2c(=O)n1-c1ccccc1C` [Ex. 30, (S)-2-(1-((6-amino-5-(1-methyl-1H-1,2,4-triazol-3-yl)pyrimidin-4-yl)amino)-propyl)-5-methyl-3-(o-tolyl)quinazolin-4(3H)-one]: in data set [1], the half-life at 5 μM was determined as 17.8 min and the CLint scaled at 5 μM is 8.37 L/h/kg. In addition, in data set [2], the half-life at 5 μM was 8.46 min and the CLint scaled at 5 μM is 17.6 L/h/kg. In data set [3] (iv dosing, dose 1 mg/kg), the “clearance (CL)” value was 4.23 L/h/kg, the AUC(0-t) was 0.238 µg·h/mL, the half-life is 51.6 min and the Vd is 3.84 L/kg. For the same compound, the bioavailability in data set [3] (iv dose 1 mg/kg) came to 22.4%.

Consider `CC[C@H](Nc1ncnc(N)c1-c1ncn(C)n1)c1nc2cccc(Cl)c2c(=O)n1-c1ccccc1F` [Ex. 45, (S)-2-(1-((6-amino-5-(1-methyl-1H-1,2,4-triazol-3-yl)pyrimidin-4-yl)amino)-propyl)-5-chloro-3-(2-fluorophenyl)quinazolin-4(3H)-one], for which, in data set [1], the half-life at 5 μM was 10.7 min and the CLint scaled at 5 μM is 9.74 L/h/kg. Further, in data set [2], the half-life at 5 μM worked out at 9 min and the CLint scaled at 5 μM is 16.6 L/h/kg. In data set [3] (iv dosing, dose 1 mg/kg), the “clearance (CL)” value worked out at 3.71 L/h/kg, the area under the curve AUC(0-t) is 0.278 µg·h/mL, the half-life is 58.2 min and the Vd stood at 4.61 L/kg. In data set [3] (iv dose 1 mg/kg), the bioavailability was determined as 70.2%.

In the case of `CC[C@H](Nc1ncnc(N)c1-c1nc(C)co1)c1nc2cccc(C)c2c(=O)n1-c1ccccc1C` [Ex. 29, (S)-2-(1-((6-amino-5-(4-methyloxazol-2-yl)pyrimidin-4-yl)amino)propyl)-5-methyl-3-(o-tolyl)quinazolin-4(3H)-one], in data set [1], the half-life at 5 μM was determined as 1.92 min and the CLint scaled at 5 μM was 77.5 L/h/kg. In addition, in data set [2], the half-life at 5 μM came out at 1.92 min and the CLint scaled at 5 μM is 77.7 L/h/kg. In data set [3] (iv dosing, dose 1 mg/kg), the “clearance (CL)” value stood at 7.80 L/h/kg, the AUC(0-t) was determined as 0.247 µg·h/mL, the half-life was 122 min and the Vd was determined as 13.2 L/kg. The bioavailability in data set [3] (iv dose 1 mg/kg) came out at 4.56%.

Consider `CC[C@H](Nc1ncnc(N)c1-c1nc(COC)n(C)n1)c1nc2cccc(Cl)c2c(=O)n1C1CC1` [Ex. 46, (S)-2-(1-((6-amino-5-(5-(methoxymethyl)-1-methyl-1H-1,2,4-triazol-3-yl)pyrimidin-4-yl)amino)propyl)-5-chloro-3-cyclopropylquinazolin-4(3H)-one], for which, in data set [1], the half-life at 5 μM is 6.1 min and the CLint scaled at 5 μM was 17.1 L/h/kg. In addition, in data set [2], the half-life at 5 μM was 3.86 min and the CLint scaled at 5 μM was 38.6 L/h/kg. Further, in data set [3] (iv dosing, dose 1 mg/kg), the “clearance (CL)” value was determined as 3.35 L/h/kg, the AUC(0-t) worked out at 0.3 µg·h/mL, the half-life was 42.6 min and the Vd was found to be 3.65 L/kg. Also, the bioavailability in data set [3] (iv dose 1 mg/kg) turned out to be 20.2%.
